# From PMC10059756, “New Thienobenzo/Naphtho-Triazoles as Butyrylcholinesterase Inhibitors: Design, Synthesis and Computational Study” (International Journal of Molecular Sciences, 2023)
# Key:
# [1] = target: BChE (EC 3.1.1.8, equine serum) (Equus caballus, UniProt P81908); assay: biochemical; assay type: biochemical; details: for IC50: Ellman's method, 5 min pre-incubation at 4 °C, triplicate
# [2] = target: AChE (EC 3.1.1.7, Electrophorus electricus) (Electrophorus electricus, UniProt O42275); assay: biochemical; assay type: biochemical; details: for IC50: Ellman's method, 5 min pre-incubation at 4 °C, triplicate
# [3] = system: TNFα production; details: cited from earlier work; for anti-inflammatory activity: previous series
# [4] = system: BChE; design: method as in PMID 35870364, PMID 35228009; details: previous research; cited from earlier work
# Sequence of BChE (EC 3.1.1.8, equine serum) (P81908 whole entry): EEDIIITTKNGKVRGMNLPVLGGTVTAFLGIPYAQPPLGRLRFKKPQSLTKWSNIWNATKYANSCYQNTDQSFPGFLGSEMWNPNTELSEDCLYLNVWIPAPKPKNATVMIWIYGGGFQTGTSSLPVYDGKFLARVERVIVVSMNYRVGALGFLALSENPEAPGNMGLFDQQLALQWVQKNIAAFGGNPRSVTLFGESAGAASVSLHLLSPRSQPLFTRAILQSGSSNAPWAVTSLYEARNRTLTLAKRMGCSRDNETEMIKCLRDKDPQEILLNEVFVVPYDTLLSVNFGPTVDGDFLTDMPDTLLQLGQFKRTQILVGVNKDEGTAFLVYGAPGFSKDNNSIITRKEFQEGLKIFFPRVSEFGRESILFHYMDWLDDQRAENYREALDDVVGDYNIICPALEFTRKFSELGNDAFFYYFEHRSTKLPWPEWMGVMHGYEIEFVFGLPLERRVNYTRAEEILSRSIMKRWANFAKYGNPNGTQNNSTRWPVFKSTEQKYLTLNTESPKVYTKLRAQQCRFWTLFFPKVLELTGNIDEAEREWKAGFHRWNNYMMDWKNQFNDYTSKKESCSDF
# Sequence of AChE (EC 3.1.1.7, Electrophorus electricus) (O42275 24-633): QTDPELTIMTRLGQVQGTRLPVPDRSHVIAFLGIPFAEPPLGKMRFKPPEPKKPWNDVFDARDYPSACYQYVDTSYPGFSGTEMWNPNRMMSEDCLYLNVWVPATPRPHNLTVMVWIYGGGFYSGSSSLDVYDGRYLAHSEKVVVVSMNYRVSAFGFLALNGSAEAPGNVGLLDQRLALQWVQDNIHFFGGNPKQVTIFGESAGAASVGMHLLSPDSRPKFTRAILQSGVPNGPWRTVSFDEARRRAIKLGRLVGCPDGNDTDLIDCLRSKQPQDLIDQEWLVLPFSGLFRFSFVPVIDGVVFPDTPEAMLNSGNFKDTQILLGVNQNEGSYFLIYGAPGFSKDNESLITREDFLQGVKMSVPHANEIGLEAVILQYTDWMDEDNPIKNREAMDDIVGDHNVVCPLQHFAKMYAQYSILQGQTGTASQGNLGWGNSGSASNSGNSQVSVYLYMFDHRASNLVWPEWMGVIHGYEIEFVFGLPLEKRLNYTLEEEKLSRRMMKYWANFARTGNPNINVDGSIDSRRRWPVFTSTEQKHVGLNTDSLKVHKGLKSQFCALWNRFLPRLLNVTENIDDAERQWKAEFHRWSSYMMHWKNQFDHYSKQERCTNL
Compound,IC50 [1] [µM],IC50 [2] [µM],also measured
"Fc1ccc(Cn2nnc3c2-c2ccsc2CC3)cc1 [Compound 13, 1-(4-fluorobenzyl)-4,5-dihydro-1H-thieno[3′,2′:3,4]benzo[1,2-d][1,2,3]triazole]",58,–,–
CC(C)n1nnc2ccc3ccc(Cl)cc3c21 [Compound 1],39.6,59.9,anti-inflammatory activity [3]: ten times weaker anti-inflammatory activity than 2
"OCCCCn1nnc2ccc3sccc3c21 [Compound 12, 4-(1H-thieno[3′,2′:3,4]benzo[1,2-d][1,2,3]triazol-1-yl)butan-1-ol]",107,–,–
COc1ccc(CCn2nnc3c2-c2ccsc2CC3)cc1 [Compound 16],119,145,–
"COc1ccc2c3c1O[C@H]1C[C@@H](O)C=C[C@@]31CCN(C)C2 [Galantamine, galantamine]",–,–,IC50 [4]: 7.9 µM
"c1cc2c(s1)CCc1nnn(CCN3CCOCC3)c1-2 [Compound 17, 4-(2-(4,5-dihydro-1H-thieno[3′,2′:3,4]benzo[1,2-d][1,2,3]triazol-1-yl)ethyl)morpholine]",–,45.6,–
"COc1ccc(Cn2nnc3ccc4sccc4c32)cc1 [Compound 3, 1-(4-methoxybenzyl)-1H-thieno[3′,2′:3,4]benzo[1,2-d][1,2,3]triazole]",25.5,116,–
"FC(F)(F)Oc1ccc(Cn2nnc3ccc4sccc4c32)cc1 [Compound 8, 1-(4-(trifluoromethoxy)benzyl)-1H-thieno[3′,2′:3,4]benzo[1,2-d][1,2,3]triazole]",214,68,–
"COc1ccc(CCn2nnc3ccc4sccc4c32)cc1 [Compound 9, 1-(4-methoxyphenethyl)-1H-thieno[3′,2′:3,4]benzo[1,2-d][1,2,3]triazole]",18.6,–,–
"FC(F)(F)c1ccc(Cn2nnc3ccc4sccc4c32)cc1 [Compound 7, 1-(4-(trifluoromethyl)benzyl)-1H-thieno[3′,2′:3,4]benzo[1,2-d][1,2,3]triazole]",> 150,140,–
"C=CCn1nnc2ccc3sccc3c21 [structure C, reference compound]",–,–,IC50 [4]: 3.8 µM; TNFα production inhibition ([3]; LPS-stimulated human PBMCs): good TNFα production inhibition
"OCCCCn1nnc2c1-c1ccsc1CC2 [Compound 19, 4-(4,5-dihydro-1H-thieno[3′,2′:3,4]benzo[1,2-d][1,2,3]triazol-1-yl)butan-1-ol]",74.1,–,–
"FC(F)(F)c1ccc(Cn2nnc3c2-c2ccsc2CC3)cc1 [Compound 14, 1-(4-(trifluoromethyl)benzyl)-4,5-dihydro-1H-thieno[3′,2′:3,4]benzo[1,2-d][1,2,3]triazole]",> 150,118,–
"c1csc(Cn2nnc3ccc4sccc4c32)c1 [Compound 5, 1-(thiophen-2-ylmethyl)-1H-thieno[3′,2′:3,4]benzo[1,2-d][1,2,3]triazole]",23.4,119,–
"Fc1ccc(Cn2nnc3ccc4sccc4c32)cc1 [Compound 4, 1-(4-fluorobenzyl)-1H-thieno[3′,2′:3,4]benzo[1,2-d][1,2,3]triazole]",37.5,97,–
"FC(F)(F)Oc1ccc(Cn2nnc3c2-c2ccsc2CC3)cc1 [Compound 15, 1-(4-(trifluoromethoxy)benzyl)-4,5-dihydro-1H-thieno[3′,2′:3,4]benzo[1,2-d][1,2,3]triazole]",–,88.7,–
"CCOC(=O)CCn1nnc2ccc3sccc3c21 [Compound 6, Ethyl 3-(1H-thieno[3′,2′:3,4]benzo[1,2-d][1,2,3]triazol-1-yl)propanoate]",39.6,–,–
COc1ccc(Cn2nnc3ccc4ccc(OC)cc4c32)cc1 [Compound 2],–,–,inhibitory activity toward AChE (in words) ([2]; final concentrations 10–500 μM): no inhibitory activity; inhibitory activity toward BChE (in words) ([1]; final concentrations 10–500 μM): no inhibitory activity; anti-inflammatory activity [3]: best anti-inflammatory activity of all the tested compounds
